System: VX2 tumors
Test: CT of hepatic VX2 tumors, co-administration study
Assay type: in vivo, rabbits
Conditions: VX2 rabbit
Text: In a particularly advantageous embodiment of the invention, a hepatocyte-selective oil-in-water emulsion is co-administered with the blood-pool agent of the present invention. Liver-selective particulate agents (hepatocyte-selective or Kupffer cell-selective) clear rapidly from the blood and render the blood hypodense relative to surrounding liver tissue. It is very difficult to separate small tumors, which also appear as hypodense areas from small vasculature in the sub 5 mm size range. In order to compensate for this problem, DHOG-PEG (Example 1) and hepatocyte-selective DHOG-LE (Emulsion Example 6, non-radioactive form) were co-administered to rabbits bearing VX2 tumors.
Rabbits (mean weight 2.5 kg) were inoculated with VX2 carcinoma directly into the hepatic parenchyma to produce a total of 8 focal lesions (2-10 mm). Ten days later, the rabbits were scanned with multiple techniques including noncontrast, helical IV enhanced (600 mg I/kg iohexol), and 24 hours later using the iodinated microparticulate emulsion (200 mg I/kg). Tissue density measurements (HU) were made of liver, lesions, and blood (descending aorta). Tumor morphology was verified by gross pathologic examination.

[1] = iohexol 600 mg I/kg, emulsion 200 mg I/kg

Question: Which results are given for `CC(=O)N(CC(O)CO)c1c(I)c(C(=O)NCC(O)CO)c(I)c(C(=O)NCC(O)CO)c1I` (stereo not drawn) [iohexol]?
Answer: lesion detection (sensitivity), Lesions < 1 cm: 49.3; lesion detection (sensitivity), Lesions > 1 cm: 97.6; lesion detection (sensitivity), Overall: 67.6; liver-to-lesion difference: 28.8; enhancement of liver tissue [1]: +66.8 HU; tumor enhancement [1]: +40.1 HU
